Measured values taken from patent publication US12552799B2, “Triazolone compounds” (Nxera Pharma UK Limited, priority 2020, dated 2026).
One block for each compound: values may come before it.

How the values were obtained:
[1] = target: human CB1 receptor (Homo sapiens (Human), UniProt P21554); assay: CB1 receptor antagonism, agonist-induced cAMP modulation (HTRF) in transfected CHO cells; format: cell-based; settings: inhibition of control response to 3 nM CP 55940, cAMP HTRF, read-out: Antag IC50
Method: Receptor antagonism: Evaluation of the antagonist activity of compounds at the human CB1 receptor expressed in transfected CHO cells, determined by measuring their effects on agonist-induced cAMP modulation using the HTRF detection method.
The cells are suspended in HBSS buffer (Invitrogen) complemented with 20 mM HEPES (pH 7.4), then distributed in microplates at a density of 5.10^3 cells/well and preincubated for 5 min at room temperature in the presence of either of the following: HBSS (stimulated control), the reference antagonist AM 281 at 3 μM (basal control) or various concentrations (IC50 determination), or the test compounds.
Thereafter, the reference agonist CP 55940 and the adenylyl cyclase activator NKH 477 are added at respective final concentrations of 3 nM and 3 μM.
For basal control measurements, CP 55940 is omitted from the wells containing 3 μM AM 281.
Following 20 min incubation at 37° C., the cells are lysed and the fluorescence acceptor (D2-labeled cAMP) and fluorescence donor (anti-cAMP antibody labeled with europium cryptate) are added.
After 60 min at room temperature, the fluorescence transfer is measured at λex=337 nm and λem=620 and 665 nm using a microplate reader (Rubystar, BMG). The cAMP concentration is determined by dividing the signal measured at 665 nm by that measured at 620 nm (ratio).
The results are expressed as a percent inhibition of the control response to 3 nM CP 55940.
The standard reference antagonist is AM 281, which is tested in each experiment at several concentrations to generate a concentration-response curve from which its IC50 value is calculated.

[2] = target: human adenosine A1 receptor (Homo sapiens (Human), UniProt P30542); assay: Adenosine receptor binding assay, A1 ([3H]DPCPX inhibition binding on membranes); settings: 1 nM [3H]DPCPX, 25° C., 1 h, Ki from IC50 by Cheng-Prusoff
Method: (§1) Inhibition binding assays were performed using 0.2 μg of membranes prepared from HEK293 cells infected with BacMam human adenosine A2A receptor or 1.4 μg of membranes prepared from HEK293 cells infected with BacMam human adenosine A1 receptor. Membranes were incubated in 50 mM Tris-HCl (HEK293-hA2A; pH 7.4) or 50 mM Tris-HCl, 100 mM NaCl, 10 mM MgCl2 (CHO-hA1; pH 7.4) in the presence of varying concentrations of test compound and 1 nM [^3H]ZM241385 (HEK293-hA2A) or [^3H]DPCPX (CHO-hA1) at 25° C. for 1 h. The assay was then terminated by rapid filtration onto GF/B grade Unifilter plates using a TomTec cell harvester, followed by 5×0.5 ml washes with ddH2O. Nonspecific binding was defined in the presence of 1 μM CGS15943 (HEK293-hA2A) or 1 μM DPCPX (CHO-hA1). Bound radioactivity was determined by liquid scintillation counting and inhibition curves were analysed using a four-parameter logistic equation. IC50 values were converted to Ki values with the Cheng-Prusoff equation using a KD value derived from saturation binding studies.

[3] = target: human adenosine A2A receptor (Homo sapiens (Human), UniProt P29274); assay: Adenosine receptor binding assay, A2A ([3H]ZM241385 inhibition binding on HEK293 membranes); settings: 1 nM [3H]ZM241385, 25° C., 1 h, Ki from IC50 by Cheng-Prusoff
Method: as §1

[4] = target: human CB-1 cannabinoid receptor (Homo sapiens (Human), UniProt P21554); assay: CB-1 receptor radioligand binding assay ([3H]CP 55940, transfected CHO cell membranes); settings: 0.5 nM [3H]CP 55940, 120 min at 37° C., agonist site
Method: Nonspecific binding is determined in the presence of 10 μM WIN 55212-2.
Following incubation, the samples are filtered rapidly under vacuum through glass fiber filters (GF/B, Packard) presoaked with 0.3% PEI and rinsed several times with an ice-cold buffer containing 50 mM Tris-HCl (pH 7.4) and 0.5% BSA using a 96-sample cell harvester (Unifilter, Packard). The filters are dried then counted for radioactivity in a scintillation counter (Topcount, Packard) using a scintillation cocktail (Microscint O, Packard).
The standard reference compound is CP 55940 which is tested in each experiment at several concentrations to obtain a competition curve from which its IC50 is calculated.
In Table 5, blank entries for Ki indicate that the observed binding was too weak to measure a Ki value.

Chain of human CB1 receptor (P21554 whole entry): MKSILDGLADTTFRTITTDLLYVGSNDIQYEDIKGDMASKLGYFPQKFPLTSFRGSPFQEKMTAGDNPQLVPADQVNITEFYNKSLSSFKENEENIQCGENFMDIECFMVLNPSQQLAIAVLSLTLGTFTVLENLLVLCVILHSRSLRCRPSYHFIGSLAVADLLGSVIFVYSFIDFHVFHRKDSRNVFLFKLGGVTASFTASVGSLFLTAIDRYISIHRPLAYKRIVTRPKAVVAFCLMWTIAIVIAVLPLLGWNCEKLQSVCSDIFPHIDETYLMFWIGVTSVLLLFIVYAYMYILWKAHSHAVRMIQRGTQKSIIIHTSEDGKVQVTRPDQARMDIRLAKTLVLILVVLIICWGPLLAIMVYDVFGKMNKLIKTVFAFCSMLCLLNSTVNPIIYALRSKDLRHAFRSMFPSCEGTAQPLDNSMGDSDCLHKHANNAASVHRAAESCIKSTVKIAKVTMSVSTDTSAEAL
Chain of human CB-1 cannabinoid receptor (P21554 whole entry): as above
Chain of human adenosine A1 receptor (P30542 whole entry): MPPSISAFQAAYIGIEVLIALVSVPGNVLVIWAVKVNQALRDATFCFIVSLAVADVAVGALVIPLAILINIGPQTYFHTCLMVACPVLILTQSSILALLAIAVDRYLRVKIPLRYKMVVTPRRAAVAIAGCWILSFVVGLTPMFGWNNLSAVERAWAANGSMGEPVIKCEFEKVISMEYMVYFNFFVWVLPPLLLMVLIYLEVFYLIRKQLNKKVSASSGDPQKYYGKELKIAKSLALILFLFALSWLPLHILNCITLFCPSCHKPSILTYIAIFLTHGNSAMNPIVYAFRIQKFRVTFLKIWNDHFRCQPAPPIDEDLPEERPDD
Chain of human adenosine A2A receptor (P29274 whole entry): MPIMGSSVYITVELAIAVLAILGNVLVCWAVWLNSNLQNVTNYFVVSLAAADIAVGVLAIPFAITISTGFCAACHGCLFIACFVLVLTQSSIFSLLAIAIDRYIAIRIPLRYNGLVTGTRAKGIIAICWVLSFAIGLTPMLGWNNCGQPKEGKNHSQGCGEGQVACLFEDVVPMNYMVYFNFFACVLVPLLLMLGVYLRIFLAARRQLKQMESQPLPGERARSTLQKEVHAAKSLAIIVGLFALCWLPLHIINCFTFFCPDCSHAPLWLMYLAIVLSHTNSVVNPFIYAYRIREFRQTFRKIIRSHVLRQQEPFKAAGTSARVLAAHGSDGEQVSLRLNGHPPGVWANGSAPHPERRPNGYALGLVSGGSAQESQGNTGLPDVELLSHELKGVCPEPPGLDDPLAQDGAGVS

Compound: C[C@@H]1CN(c2c(-c3ccccc3)nc(N)n3c(=O)n(Cc4ccc(F)cn4)nc23)C[C@H](C)O1 [Example 1-14, 5-amino-8-[(cis)-2,6-dimethylmorpholin-4-yl]-2-[(5-fluoro-2-pyridyl)methyl]-7-phenyl-[1,2,4]triazolo[4,3-c]pyrimidin-3-one]
IC50 [1]: 7 µM | A1 pKi [2]: 5.9 | A2A pKi [3]: 7.9 | Ki [4]: 9.5 µM

Compound: C[C@@H]1CC(c2c(-c3ccccc3)nc(N)n3c(=O)n(CCC(F)(F)F)nc23)=C[C@H](C)O1 (relative stereo) [Example 2-1, 5-amino-8-[(cis)-2,6-dimethyl-3,6-dihydro-2H-pyran-4-yl]-7-phenyl-2-(3,3,3-trifluoropropyl)-[1,2,4]triazolo[4,3-c]pyrimidin-3-one]
IC50 [1]: 72.2 µM | A1 pKi [2]: 6.3 | A2A pKi [3]: 8.6 | Ki [4]: 31.5 µM

Compound: Cc1cc(-c2c(-c3ccccc3)nc(N)n3c(=O)n(Cc4ccc(F)cn4)nc23)cc2nc[nH]c12 [Example 4-5, 5-amino-2-[(5-fluoro-2-pyridyl)methyl]-8-(7-methyl-1H-benzimidazol-5-yl)-7-phenyl-[1,2,4]triazolo[4,3-c]pyrimidin-3-one]
IC50 [1]: 68.6 µM | A1 pKi [2]: 7.0 | A2A pKi [3]: 9.0 | Ki [4]: 24.4 µM

Compound: C[C@@H]1CN(c2c(-c3ccccc3)nc(N)n3c(=O)n(CCC(F)(F)F)nc23)C[C@H](C)O1 [Example 1-1, 5-amino-8-[(cis)-2,6-dimethylmorpholin-4-yl]-7-phenyl-2-(3,3,3-trifluoropropyl)-[1,2,4]triazolo[4,3-c]pyrimidin-3-one]
IC50 [1]: 14.7 µM | A1 pKi [2]: <5.4 | A2A pKi [3]: 8.3 | Ki [4]: 33.9 µM

Compound: Cc1ocnc1Cn1nc2c(-c3cc(C)c4[nH]ncc4c3)c(-c3ccccc3)nc(N)n2c1=O [Example 4-9, 5-amino-8-(7-methyl-1H-indazol-5-yl)-2-[(5-methyloxazol-4-yl)methyl]-7-phenyl-[1,2,4]triazolo[4,3-c]pyrimidin-3-one]
IC50 [1]: 15.5 µM | A1 pKi [2]: 8.8 | A2A pKi [3]: 10.1 | Ki [4]: 39.1 µM

These reach a lower IC50 [1]. Values come first.

IC50 [1]: 2.6 µM | A1 pKi [2]: 8.7 | A2A pKi [3]: 9.8 | Ki [4]: 2.5 µM
Compound: Cc1ocnc1Cn1nc2c(-c3cc(Cl)c4[nH]ncc4c3)c(-c3ccccc3)nc(N)n2c1=O [Example 4-11, 5-amino-8-(7-chloro-1H-indazol-5-yl)-2-[(5-methyloxazol-4-yl)methyl]-7-phenyl-[1,2,4]triazolo[4,3-c]pyrimidin-3-one]

IC50 [1]: 1.3 µM | Ki ([2]; read-out: A1 pKi (converted)): 0.0251 µM | Ki ([3]; read-out: A2A pKi (converted)): 0.000251 µM | Ki [4]: 5.5 µM
Compound: Cc1cc(-c2c(-c3ccccc3)nc(N)n3c(=O)n(Cc4ccc(F)cn4)nc23)cc2cn[nH]c12 [Example 4-4, 5-amino-2-[(5-fluoro-2-pyridyl)methyl]-8-(7-methyl-1H-indazol-5-yl)-7-phenyl-[1,2,4]triazolo[4,3-c]pyrimidin-3-one]

IC50 [1]: 2.4 µM | A1 pKi [2]: 6.5 | A2A pKi [3]: 9.3 | Ki [4]: 3.7 µM
Compound: Cc1cc(-c2c(-c3ccc(F)cc3)nc(N)n3c(=O)n(CCC(F)(F)F)nc23)cc2ocnc12 [Example 4-1, 5-amino-7-(4-fluorophenyl)-8-(4-methyl-1,3-benzoxazol-6-yl)-2-(3,3,3-trifluoropropyl)-[1,2,4]triazolo[4,3-c]pyrimidin-3-one]
